Laboratory results: US6911454B1, “Method for potentiating primary drugs in treating multidrug resistant disease” (priority 1989, dated 2005)
pIC50: −log10 of the molar value. Entries after “also recorded” stand apart in the source; their conditions may differ.

Tests used:
[1] = d-Tetrandrine-(S) detected at the tumor; format: in vivo, mice; conditions: 3 intraperitoneal injections over 120 hours, 150 mg/kg total
[2] = tested on: A2780AD10; conditions: FIG. 4; A2780AD10 versus parent A2780; addition of d-tetrandrine
[3] = tested on: DX20 tumor; assay: tumor measurements in nude mice bearing the DX20 tumor; format: in vivo
Method: (See FIG. 6). Tumor size was calculated using the formula (4 Pi/3) X*Y*2Z.
The study was done with 3-4 week old male balb-C nude mice. The animals were injected with DX20 1×10^7 cells.

[4] = tested on: resistant (K562-R7) cancel cells; assay: doxorubicin fluorescence test by flow cytometry; format: cell-based; conditions: FIG. 12, resistant cells pre-incubated with tetrandrine
[5] = tested on: multidrug resistant human cancer (DX20); format: in vivo, mice; conditions: d-tetrandrine 0.5, 1, 1.5 mg injections; doxorubicin 5.5 mg per kg; about one month
Method: It is only important that they be administered sufficiently close together that the cancer is exposed to both simultaneously. For example, nude mice infected with a multidrug resistant human cancer were given 0.5 mg, 1 mg and 1.5 mg respectively in three separate injections, 72 hours apart.

[6] = tested on: DX20; conditions: FIG. 5; colony formation, 7 days; addition of d-tetrandrine
Method: The second assay model used, colony formation assay, consisted of 1000-1500 cells, again depending on the proliferation rate of the cell line being added to each well of 24 well microtiter plates in 500 microliters of culture media. The cells were allowed to attach overnight. […] The plates were incubated for a total of 7 days before being fixed in 2.5% glutaraldehyde and stained with crystal violet. Quantitations of colony growth were assessed using an ultrasensitive imaging device (LCVS-5, I.P.S., Pittsburgh, Pa.). A colony is defined as any cluster of 30 or more cells. Percent inhibition was directly measured against control plates containing no drugs.

[7] = tested on: DX20 cancer cells; assay: modified MTT assay, drug sensitivity of DX20 cells; format: cell-based, human
Description: The MES-SA/DX20 cell line was established according to the development methods of Sikic et al., Resistance to Antineoplastic Drugs, Chap. 3, CRC Press, Ed. David Kessel, pp. 37-47 (1989). In vitro drug sensitivity testing consisted of two assay models, the modified MTT assay (Mossman, J. Immunolog. Methods, Vol. 65, pp. 55-63, 1983) and the colonogenic assay. In addition to this, the combinations were investigated in vivo in nude mice bearing the DX20 cell line. The MTT assay was chosen because of its practical advantages in large-scale screening. The assay involved cellular conversion of tetrazolium salt to a colored formazan serving as a measurement of cell viability.
In a given experiment, culture media, 50 microliters, containing 8,000-25,000 cells, depending on the proliferation rate of the cell line, was pipetted into each well of several 96-well microtiter plates. The cells were allowed to attach overnight. […] The cytotoxic drug, also at a concentration below that previously established as an IC50, was then added at decreasing concentrations by 25% to several half plate sections. The cells were allowed to grown for 72 hours. 100 microliters of media was then removed and 25 microliters of 5 mg/ml MTT (Sigma, St. Louis, Mo.) in phosphate buffered saline was added to each well. The plates were kept in an incubator at 37° C. and 5% CO2. After 2-3 hours of incubation, the extraction buffer containing 20% w/v SDS and 50% DMF was added and the plates again incubated overnight. The plates were read at a test wavelength of 570 nm on a multiwell spectrophotometer (Model MR 700, Dynatech Laboratories, Alexandria, Va.). Each drug combination was tested in triplicate. Percent survival was defined as percent of optical density (OD) of the drug-treated wells to that of the control detected by the spectrophotometer.
The in vitro drug sensitivity testing of ethyl fangchinoline consisted of two assay models, the modified MTT (Mossman 1983) and a colony formation assay in which a direct measure was taken by quantitation of colony formation. The MTT assay was chosen because of its practical advantages in large scale screening. The assay involves cellular conversion of tetrozolium salt to a colored formazan serving as a measurement of cell viability.
Two human cell lines were chosen as the primary targets of study in reversing multiple-drug resistance. The MES-SA, a sarcoma, and its resistant subline, DX-20, were kindly donated by Dr. B. Sikic (U of Stanford, Stanford, Calif.). The A2780, an ovarian cancer, and its resistant subline, A2780-ad10, were provided by Roswell Park Memorial Inst. (Buffalo, N.Y.).
Culture media, 50 ul containing 8,000 to 25,000 cells depending on the proliferation rate of the line, was pipetted into each of 96 wells in a flat bottom tissue plate. The cells were incubated overnight to allow adherence. One hundred ul of ethyl fangchinoline, at a concentration below that previously established as an independent IC50, was added to each experimental well. […] The plates were then incubated for 72 hours before MTT was added and the analysis of O.D. values interpreted by a multi-plate scanner (MR700, Dynatech).

[8] = tested on: breast cancer; assay: treatment of a person with breast cancer; format: in vivo, human; conditions: d-tetrandrine 180 mg per day orally from day 95, with trichemo (5-fluorouracil, cyclophosphamide, doxorubicin)
Method: A person with breast cancer was given d-tetrandrine orally, three times a day for a total of 180 mg per day, over a two week period. Five days after the beginning of that treatment, they were given a trichemo soup of 5-fluorouracil, cyclophosphamide and doxorubicin. Eight days later, near the end of the d-tetrandrine dosage, they were given 5-fluorouracil. This regime was followed two different times approximately two weeks apart during the course of retreatment.
A person with very serious breast cancer has also been successfully treated in accordance with the method of the present invention. The tables below describe their treatment regime, which involved a trichemo soup of 5-fluorouracil, cyclophosphamide and doxorubicin, administered intermittently with 5-fluorouracil alone. No d-tetrandrine was administered until day 95.
FIG. 11 is a graphical log of […] tumor area in cubic centimeters charted against days elapsed. The tumor initially responded to the trichemo treatment alone, reducing in size until day 50.
The patient was diagnosed via biopsy on Mar. 19, 1991 as having an infiltrated carcinoma (poorly differentiated) on the right breast. […] They were treated with a combination of 5-fluorouracil, cyclophosphamide and doxorubicin according to the schedule shown below. […] Notice the increase in tumor size between days 50 and 100 indicating the formation of drug resistance.

[9] = Day 7 Prior to Treatment (baseline)
[10] = Day 24 After Treatment, d-tetrandrine days 6, 8, 10, doxorubicin 5.5 mg/kg day 12

Q: For `COc1ccc2cc1Oc1ccc(cc1)C[C@H]1c3cc(c(OC)cc3CCN1C)Oc1c(OC)c(OC)cc3c1[C@H](C2)N(C)CC3` [TT, tetrandrine], which “d-Tetrandrine-(S) detected at the tumor” value [1] is on record?
A: Its value is 54 micrograms/gram tissue.

Q: And the doxorubicin resistance reversal [2]?
A: Its doxorubicin resistance reversal is “either partially or completely reversed”.

Q: And the “Tumor Measurements Depth” value [3, 9]?
A: The value was 1.13.

Q: What about the “Tumor Measurements Length” value [3, 9] of the same compound?
A: The value was 4.13.

Q: What about the “Tumor Measurements Width” value [3, 9] of the same compound?
A: Its value is 3.75.

Q: What about the “Tumor Measurements Depth” value [3, 10] of the same compound?
A: The value was 24.66.

Q: What about the “Tumor Measurements Width” value [3, 10] of the same compound?
A: Its value is 26.16.

Q: What about the “doxorubicin concentration (fluorescence) in resistant versus sensitive cells” value ([4]; listed as d-tetrandrine) of the same compound?
A: The value was “greater in the resistant cancer than it is in the sensitive cancer”.

Q: What about the “doxorubicin concentration (fluorescence) in resistant versus sensitive cells” value ([4]; listed as tetrandrine (TT)) of the same compound?
A: Its value is “contains more doxorubicin than the sensitive strain”.

Q: What about the tumor outcome [5] of the same compound?
A: The tumor outcome was “very large tumors which were unabated”.

Q: What about the doxorubicin-resistance reversal [6] of the same compound?
A: Its doxorubicin-resistance reversal is “either partially or completely reversed”.

Q: And the pIC50 ([7]; DX20 cells, single agent, read-out: IC50 alone)?
A: The pIC50 was 5.37.

Q: And the doxorubicin resistance reversal ([7]; FIG. 1, DX20 versus parent MES-SA, addition of d-tetrandrine)?
A: Its doxorubicin resistance reversal is “either partially or completely reversed”.

Q: What about the vincristine-resistance reversal ([7]; FIG. 2, DX20 versus parent MES-SA, addition of d-tetrandrine) of the same compound?
A: Its vincristine-resistance reversal is “either partially or completely reversed”.

Q: What about the vinblastine resistance reversal ([7]; FIG. 3, DX20 versus parent MES-SA, addition of d-tetrandrine) of the same compound?
A: The vinblastine resistance reversal was “either partially or completely reversed”.

Q: And the “sensitivity of DX20 to doxorubicin versus parent (MES) cell line” value ([7]; d-tetrandrine 1.0×10^−6 M combined with doxorubicin 1.2×10^−8 M)?
A: The value was “becomes more sensitive to doxorubicin than the parent (MES) cell line”.

Q: And the “tumor outcome in patient” value [8]?
A: Its value is “substantially eliminated; also recorded: continued to diminish to nonexistence by day 175”.
